Results on 7 molecules are retold here after ChEMBL document CHEMBL1157972, “Biotransformation of (-)-ambrox by cell suspension cultures of Actinidia deliciosa” (J Nat Prod, 2006).

Active and inactive are the calls of the source. The rule behind the calls is not given here.

For one test, the target named is Thymidine phosphorylase (Escherichia coli K-12) (UniProt P07650). Put plainly: (§1) Inhibition of Escherichia coli thymidine phosphorylase by spectrophotometry.
Chain of Thymidine phosphorylase (Escherichia coli K-12) (P07650 whole entry, looked up): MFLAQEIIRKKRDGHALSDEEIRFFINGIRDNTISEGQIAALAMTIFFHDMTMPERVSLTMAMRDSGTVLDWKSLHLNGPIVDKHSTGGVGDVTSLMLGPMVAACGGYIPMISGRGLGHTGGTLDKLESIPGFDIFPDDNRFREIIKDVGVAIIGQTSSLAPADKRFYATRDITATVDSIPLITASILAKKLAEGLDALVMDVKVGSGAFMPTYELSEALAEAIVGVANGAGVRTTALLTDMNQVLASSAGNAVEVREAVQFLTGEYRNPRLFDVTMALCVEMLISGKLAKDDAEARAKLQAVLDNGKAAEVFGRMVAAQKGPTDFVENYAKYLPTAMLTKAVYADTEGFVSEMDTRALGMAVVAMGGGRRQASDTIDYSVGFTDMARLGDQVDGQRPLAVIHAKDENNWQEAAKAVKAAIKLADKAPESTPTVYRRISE
On to `CC1(C)[C@@H](O)C[C@H](O)[C@]2(C)[C@H]3CCO[C@]3(C)CC[C@@H]12`, for which the outcome was inactive. Regarding `CC1(C)CCC[C@]2(C)[C@H]3CCO[C@]3(C)CC[C@@H]12`, the result was inactive.

On to `CC1(C)[C@@H](O)CC[C@]2(C)[C@H]3CCO[C@]3(C)CC[C@@H]12`, for which the result was inactive. Consider `CC1(C)CC[C@H](O)[C@]2(C)[C@H]3CCO[C@]3(C)CC[C@@H]12`, for which the outcome was inactive. Consider `CC1(C)C(=O)CC[C@]2(C)[C@H]3CCO[C@]3(C)CC[C@@H]12`, for which the result was inactive.

Another test deals with Thymidine phosphorylase (Escherichia coli K-12, UniProt P07650). Described as §1.
Chain of Thymidine phosphorylase (P07650 whole entry): as the sequence (P07650 whole entry, looked up) above
As to `CC1(C)CC[C@H](O)[C@]2(C)[C@H]3CCO[C@]3(C)C[C@@H](O)[C@@H]12`, the half-inhibitory concentration (IC50) turned out to be 72 µM. Take `CC1(C)[C@@H](O)CC[C@]2(C)[C@H]3CCO[C@]3(C)C[C@@H](O)[C@@H]12`: the half-inhibitory concentration (IC50) came to 81.4 µM.
